# Results as given in publication PMC9251005, “CT295 Is Chlamydia trachomatis’ Phosphoglucomutase and a Type 3 Secretion Substrate” (Frontiers in Cellular and Infection Microbiology, 2022).
# Assays:
# Assay type in all cases: biochemical
# [1] = target: T1, CpsG-HIS (Escherichia coli, UniProt P24175); assay: HPAEC-PAD product analysis with and without cofactor; conditions: 0.2 mg/ml Glc1,6diP, 0.66 mg/ml Glc1P, 10 mM Tris-HCl, 0.5 mM MgSO4, pH 8.0, 37°C, 20 min
# T1 construct: gene manB; C-terminal polyhistidine tag, E. coli BL21(DE3), Ni-NTA and Superdex 200
# T1 sequence (P24175 1-456): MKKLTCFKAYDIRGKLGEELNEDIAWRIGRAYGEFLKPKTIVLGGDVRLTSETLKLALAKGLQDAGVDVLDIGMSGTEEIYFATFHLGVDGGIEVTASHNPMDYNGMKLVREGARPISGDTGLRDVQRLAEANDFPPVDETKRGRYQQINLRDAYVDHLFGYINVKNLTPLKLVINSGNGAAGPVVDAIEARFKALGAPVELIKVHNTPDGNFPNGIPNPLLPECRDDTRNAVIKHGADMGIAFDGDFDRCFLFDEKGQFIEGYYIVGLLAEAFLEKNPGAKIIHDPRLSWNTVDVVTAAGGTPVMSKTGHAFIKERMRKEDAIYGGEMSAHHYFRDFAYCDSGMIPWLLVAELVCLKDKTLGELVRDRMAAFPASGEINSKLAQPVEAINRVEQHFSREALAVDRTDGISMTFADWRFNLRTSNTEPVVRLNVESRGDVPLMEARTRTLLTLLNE
# [2] = target: T2, CCA00344-HIS (Chlamydia caviae, UniProt Q823R2); assay: HPAEC-PAD product analysis; conditions: 0.2 mg/ml Glc1,6diP, 0.1 mg/ml enzyme, 10 mM Tris-HCl, 0.5 mM MgSO4, pH 8.0, 37°C, 20 min
# T2 construct: gene CCA_00344; C-terminal polyhistidine tag, E. coli BL21(DE3), Ni-NTA and Superdex 200
# [3] = target: T1, CpsG-HIS; assay: HPAEC-PAD product analysis; conditions: 0.66 mg/ml Glc1P, 0.2 mg/ml Glc1,6diP, 0.1 mg/ml enzyme, 10 mM Tris-HCl, 0.5 mM MgSO4, pH 8.0, 37°C, 20 min
# [4] = target: T3, CT815-HIS (Chlamydia trachomatis, UniProt O84822); assay: HPAEC-PAD product analysis; conditions: 0.66 mg/ml Glc1P, 0.2 mg/ml Glc1,6diP, 0.1 mg/ml enzyme, 10 mM Tris-HCl, 0.5 mM MgSO4, pH 8.0, 37°C, 20 min
# T3 construct: gene glmM; pET28a, C-terminal polyhistidine tag, E. coli BL21(DE3), Ni-NTA and Superdex 200
# [5] = target: T4, Flag-CT295 (Chlamydia trachomatis, UniProt O84297); assay: HPAEC-PAD product analysis, enzyme on anti-Flag beads; conditions: 0.66 mg/ml Glc1P, no Glc1,6diP, 10 mM Tris-HCl, 0.5 mM MgSO4, pH 8.0, 37°C, 20 min; immobilised enzyme
# T4 construct: gene mrsA_1; N-terminal Flag tag, expressed in HEK293T, immobilised on anti-Flag beads
# T4 sequence (O84297 entry or part of it): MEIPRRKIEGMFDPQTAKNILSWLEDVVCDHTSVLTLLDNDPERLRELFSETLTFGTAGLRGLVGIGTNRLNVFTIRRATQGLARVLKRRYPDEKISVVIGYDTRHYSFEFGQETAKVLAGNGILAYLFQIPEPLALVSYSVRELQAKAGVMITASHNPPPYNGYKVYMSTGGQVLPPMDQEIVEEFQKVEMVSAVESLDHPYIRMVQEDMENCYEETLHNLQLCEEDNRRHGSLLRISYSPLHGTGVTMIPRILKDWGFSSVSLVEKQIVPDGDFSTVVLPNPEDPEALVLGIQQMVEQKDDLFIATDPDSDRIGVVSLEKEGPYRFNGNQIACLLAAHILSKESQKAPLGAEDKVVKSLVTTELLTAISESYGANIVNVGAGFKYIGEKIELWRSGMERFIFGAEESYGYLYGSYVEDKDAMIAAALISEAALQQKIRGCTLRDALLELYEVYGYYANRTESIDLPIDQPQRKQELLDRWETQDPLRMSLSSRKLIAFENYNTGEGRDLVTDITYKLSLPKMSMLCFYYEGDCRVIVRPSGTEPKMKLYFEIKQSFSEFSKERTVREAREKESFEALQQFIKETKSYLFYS
# T2 sequence (Q823R2 entry or part of it): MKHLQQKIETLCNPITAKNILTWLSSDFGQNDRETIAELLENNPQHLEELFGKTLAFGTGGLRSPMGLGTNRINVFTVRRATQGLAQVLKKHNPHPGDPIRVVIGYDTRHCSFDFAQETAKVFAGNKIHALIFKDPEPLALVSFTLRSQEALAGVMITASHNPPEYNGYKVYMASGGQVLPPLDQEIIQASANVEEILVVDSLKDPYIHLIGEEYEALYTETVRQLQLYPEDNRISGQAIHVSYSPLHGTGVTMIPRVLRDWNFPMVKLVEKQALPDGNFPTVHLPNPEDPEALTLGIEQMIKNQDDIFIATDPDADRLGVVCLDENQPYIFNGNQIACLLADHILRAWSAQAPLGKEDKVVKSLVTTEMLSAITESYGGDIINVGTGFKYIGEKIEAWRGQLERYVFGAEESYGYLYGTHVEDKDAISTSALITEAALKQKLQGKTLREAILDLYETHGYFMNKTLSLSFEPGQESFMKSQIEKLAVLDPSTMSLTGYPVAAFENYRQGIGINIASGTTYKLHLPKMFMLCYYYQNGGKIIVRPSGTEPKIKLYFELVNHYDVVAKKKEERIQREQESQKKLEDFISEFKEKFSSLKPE
# T3 sequence (O84822 whole entry): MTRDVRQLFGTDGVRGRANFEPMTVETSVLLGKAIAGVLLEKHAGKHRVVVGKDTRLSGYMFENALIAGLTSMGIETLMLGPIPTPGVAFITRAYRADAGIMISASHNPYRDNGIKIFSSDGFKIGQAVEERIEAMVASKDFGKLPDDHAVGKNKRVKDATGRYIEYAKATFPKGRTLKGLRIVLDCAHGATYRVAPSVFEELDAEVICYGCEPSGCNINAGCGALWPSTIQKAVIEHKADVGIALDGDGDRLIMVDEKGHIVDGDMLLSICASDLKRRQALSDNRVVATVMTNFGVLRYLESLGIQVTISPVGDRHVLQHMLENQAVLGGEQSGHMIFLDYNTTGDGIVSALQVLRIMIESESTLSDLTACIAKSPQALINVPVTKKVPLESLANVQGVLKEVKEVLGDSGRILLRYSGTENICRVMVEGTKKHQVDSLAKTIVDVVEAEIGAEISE
smiles,measurement,setting,value
"O=P(O)(O)OC[C@H]1O[C@H](OP(=O)(O)O)[C@H](O)[C@@H](O)[C@@H]1O [Glc1,6diP]",HPAEC-PAD product analysis with and without cofactor,[1],"CpsG-HIS required the presence of Glc1,6diP to convert Glc1P into Glc6P"
O=P(O)(O)O[C@H]1O[C@H](CO)[C@@H](O)[C@H](O)[C@H]1O [Glc1P],HPAEC-PAD product analysis,[2]; 0.66 mg/ml Glc1P,Incubation of Glc1P in the presence of CCA00344-HIS led to its full conversion into Glc6P
same,HPAEC-PAD product analysis,[3],"CpsG-HIS required the presence of Glc1,6diP to convert Glc1P into Glc6P"
same,HPAEC-PAD product analysis,[4],only low levels of Glc6P were detected in the presence of CT815-HIS
same,"HPAEC-PAD product analysis, enzyme on anti-Flag beads",[5],These data demonstrated the ability of CT295 to convert Glc1P into Glc6P
O=P(O)(O)OC[C@H]1OC(O)[C@H](O)[C@@H](O)[C@@H]1O (stereo partly drawn) [Glc6P],HPAEC-PAD product analysis,"[2]; 0.33 mg/ml Glc6P, reverse reaction",very low amounts of Glc1P were detected after incubation with CCA00344-HIS or CpsG-HIS
